Experimental data: publication PMC11595589, “A Pharmacokinetic and Bioavailability Study of Ecklonia cava Phlorotannins Following Intravenous and Oral Administration in Sprague–Dawley Rats” (Marine Drugs, 2024)
“Also recorded” adds a separate entry of the source. Where two headings read alike, the source gives them in different places. Marks after values point to notes of the source that are not given here.

Legend:
[1] = Single-dose pharmacokinetics after IV bolus administration of EK-ECP; type: in vivo, male Sprague–Dawley rats; settings: IV bolus 10 mg/kg EK-ECP; for T1/2 (terminal half-life) / half-life / AUC(0-t) / Vd / AUC(0-inf) / MRT last / C0: mean (CV); for T1/2 (terminal half-life) / half-life / AUC(0-t) / Vd: 10 mg/kg; for Tlast: median (minimum-maximum); for half-life / AUC(0-t) / Vd / AUC(0-inf) / MRT last / C0 / clearance: male, Sprague-Dawley, rat; for half-life / AUC(0-t) / Vd: iv; for clearance: read-out: Mean clearance (Cl) (converted)
Description: (§1) EK-ECP was administered to male Sprague–Dawley rats by either IV bolus (Group 1, 10 mg/kg) or oral gavage (Groups 2, 3 or 4, at 10, 100 or 1000 mg/kg, respectively) administration. Blood collection intervals were pre dose (0), and 0.25, 0.5, 1, 2, 4, 6, 8, 12, 24 and 36 h post dose. Plasma samples were analyzed for concentrations of 8,8′-bieckol, dieckol, and PFF-A; all pre-dose sample results were less than the lower limit of quantitation (LLOQ < 1 ng/mL). The time profiles of the plasma concentrations of 8,8′-bieckol, dieckol, and PFF-A in individual animals are illustrated in Figure 4. The mean pharmacokinetic parameters and corresponding coefficient of variation (CV) following IV administration of 10 mg/kg EK-ECP to male rats are illustrated in Table 1. Those following oral administrations of 10, 100 and 1000 mg/kg EK-ECP to male rats are illustrated in Table 2.
(§2) Total of 20 male CD® [Crl:CD®(SD)] rats (approximately 11.5 weeks of age) obtained from Charles River Laboratories (Portage, MI, USA) were used in our study. These included five rats with both jugular and femoral vein cannulations, and 15 rats with jugular vein cannulations. Of the 20 animals received, 16 male rats were placed in the study, comprising four rats with both jugular and femoral vein cannulations, and 12 rats with jugular vein cannulations. The rats were housed in the Mattawan facility of MPI Research Inc (currently Charles River Laboratories, Mattawan, MI, USA). Animal welfare for this study was in compliance with the U.S. Department of Agriculture’s (USDA) Animal Welfare Act (9 CFR Parts 1, 2 and 3). This facility maintained an animal welfare assurance statement with the National Institutes of Health Office of Laboratory Animal Welfare. All procedures were approved before the study by the institutional animal care utilization committee. Animals were individually housed and fed a basal diet of Lab Diet Certified Rodent Diet #5002, PMI Nutrition International, Inc. Food and water was available ad libitum except during fasting periods, when food was withheld, and during any required restraint periods, when both food and water were withheld. Animal rooms were maintained at (20 ± 2) °C and (50 ± 20)% relative humidity with a 12 h light/dark cycle throughout the study.
(§3) For intravenous administration, EK-ECP was dissolved in 70/25/5 (v/v) phosphate-buffered saline (PBS)/propylene glycol/ethanol (pH 5.1 final concentration of 2 mg/mL) and stabilized at room temperature for 24 h. For oral administration, after an amount of EK-ECP appropriate to the final targeted formulation concentrations was weighed and placed in a bottle, a small amount of the vehicle (water for injection) was added and mixed using a vortex mixer and heated to between 60 to 70 °C until homogeneously suspended. Additional amounts of the vehicle were gradually added to yield the targeted EK-ECP concentrations (1, 10, and 100 mg/mL). Dosing occurred within 4 h after preparation completion. The individual constituent doses of dieckol, 8,8′-bieckol, and PFF-A in each dosing formulation were analyzed by RP-HPLC followed by interpolation of the corresponding area% to the calibration curve prepared with known concentrations of isolated standards. The animals were fasted for a minimum of 4 h prior to dosing and through the first 4 h of blood sample collection. Each animal in Group 1 received a single intravenous (IV) dose of the 10 mg/kg EK-ECP. The intravenous doses were administered as a slow bolus injection over 5 min through the femoral vein cannula. The cannula was flushed with approximately 0.3 mL of sterile 0.9% sodium chloride for injection, USP, immediately following dosing. Each animal in Groups 2, 3 and 4 received a single oral (PO) gavage dose of the appropriate test article formulation, as outlined Table 3. Oral gavage dosing formulations were continuously stirred throughout dosing. […]

[2] = Single-dose pharmacokinetics and bioavailability after oral gavage administration of EK-ECP; type: in vivo, male Sprague–Dawley rats; settings: for Tlast / Tmax: median (minimum-maximum); for half-life / AUC(0-t): po; for Vd/F: read-out: Vz/F
Description: as §1, §2, §3

[3] = PO 1000 mg/kg EK-ECP (Group 4), PFF-A in a single rat
[4] = male, Sprague-Dawley, rat, in vivo, PO 100 mg/kg EK-ECP, mean (CV)
[5] = male, Sprague-Dawley, rat, in vivo, PO 1000 mg/kg EK-ECP, mean (CV)

## Oc1cc(O)cc(Oc2c(O)cc(O)c3c2Oc2c(cc(O)c(-c4c(O)cc5c(c4O)Oc4c(Oc6cc(O)cc(O)c6)c(O)cc(O)c4O5)c2O)O3)c1 [8,8′-bieckol]
[1]
  plasma concentrations quantifiable up to: 36 h
  T1/2 (terminal half-life): 9.42 (9) h
  Tlast: 36 (36–36) h
[1]; in vivo, ln(2)·MRTlast, read-out: Effective T1/2 (converted)
  half-life: 1.3 h
[1]; in vivo, read-out: AUC(0–24h)
  AUC(0-t): 6540 ng·h/mL
[1]; in vivo, read-out: AUCTlast
  AUC(0-t): 6620 ng·h/mL
[1]; in vivo, read-out: T1/2 (terminal half-life) (converted)
  half-life: ~9.42 h
[1]; in vivo, read-out: Vss
  Vd: 0.366 L/kg
[1]; in vivo, read-out: Vz
  Vd: 2.2 L/kg
[1]; in vivo
  AUC(0-inf): 6670 ng·h/mL
  MRT last: 1.88 h
  clearance: 2.7 mL/min/kg
[1]; in vivo, plasma
  C0: 7220 ng/mL
[2]; PO 100 mg/kg EK-ECP (Group 3)
  plasma concentrations quantifiable up to: 12 h
[2]; PO 100 mg/kg EK-ECP
  Tlast: 8 (8–12) h
[2]; [3]
  plasma concentrations quantifiable up to: 36 h
[2]; PO 1000 mg/kg EK-ECP, mean (CV), ln(2)·MRTlast, 1000 mg/kg
  Effective T1/2: 4.11 (16) h
[2]; PO 1000 mg/kg EK-ECP
  Tlast: 36 (36–36) h
[2]; PO 100 to 1000 mg/kg EK-ECP
  fold increase in AUCTlast for a 1:10-fold increase in dose: ~84 fold
  fold increase in Cmax for a 1:10-fold increase in dose: ~71 fold
[2]; male, Sprague-Dawley, rat, in vivo, 100 mg/kg, PO 100 mg/kg EK-ECP, mean (CV), ln(2)·MRTlast, read-out: Effective T1/2 (converted)
  half-life: 2.24 h
[2]; male, Sprague-Dawley, rat, in vivo, 100 mg/kg, PO 100 mg/kg EK-ECP, mean (CV), read-out: AUC(0–24h)
  AUC(0-t): 41.5 ng·h/mL
[2]; male, Sprague-Dawley, rat, in vivo, 100 mg/kg, PO 100 mg/kg EK-ECP, mean (CV), read-out: AUCTlast
  AUC(0-t): 37.7 ng·h/mL
[2]; male, Sprague-Dawley, rat, in vivo, 100 mg/kg, PO 100 mg/kg EK-ECP, mean (CV), read-out: T1/2 (terminal half-life) (converted)
  half-life: 2.95 h
[2]; male, Sprague-Dawley, rat, in vivo, 1000 mg/kg, PO 1000 mg/kg EK-ECP, mean (CV), ln(2)·MRTlast, read-out: Effective T1/2 (converted)
  half-life: 4.41 h
[2]; male, Sprague-Dawley, rat, in vivo, 1000 mg/kg, PO 1000 mg/kg EK-ECP, mean (CV), read-out: AUC(0–24h)
  AUC(0-t): 3050 ng·h/mL
[2]; male, Sprague-Dawley, rat, in vivo, 1000 mg/kg, PO 1000 mg/kg EK-ECP, mean (CV), read-out: AUCTlast
  AUC(0-t): 3170 ng·h/mL
[2]; male, Sprague-Dawley, rat, in vivo, 1000 mg/kg, PO 1000 mg/kg EK-ECP, mean (CV), read-out: T1/2 (terminal half-life) (converted)
  half-life: 6.63 h
[2]; male, Sprague-Dawley, rat, in vivo, 100 and 1000 mg/kg oral dose of EK-ECP versus IV 10 mg/kg, dose-corrected, read-out: Bioavailability following oral gavage administration
  bioavailability: 0.069 to 0.5%
[2]; male, Sprague-Dawley, rat, in vivo, PO 100 mg/kg EK-ECP (Group 3), mean (CV)
  Cmax: 11.2 ng/mL
[2]; [4]
  AUC(0-inf): 44 ng·h/mL
  MRT last: 3.23 h
  Vd/F: 1060 L/kg
[2]; male, Sprague-Dawley, rat, in vivo, PO 100 mg/kg EK-ECP
  Tmax: 0.25 to 4 h
[2]; male, Sprague-Dawley, rat, in vivo, PO 1000 mg/kg EK-ECP (Group 4), mean (CV), PFF-A N = 1
  Cmax: 795 ng/mL
[2]; [5]
  AUC(0-inf): 3210 ng·h/mL
  MRT last: 5.93 h
  Vd/F: 342 L/kg
[2]; male, Sprague-Dawley, rat, in vivo, PO 1000 mg/kg EK-ECP
  Tmax: 0.5 h

## Oc1cc(O)cc(Oc2c(O)cc(O)c3c2Oc2c(O)cc4oc5c(Oc6cc(O)cc(O)c6)c(O)cc(O)c5c4c2O3)c1 [PFF-A, phlorofucofuroeckol-A]
[1]
  plasma concentrations quantifiable up to: 2 h
  T1/2 (terminal half-life): 0.731 (4) ^c h
  Tlast: 2 (1–2) h
[1]; plasma, ln(2)·MRTlast, read-out: Effective T1/2 (converted)
  half-life: 0.36 h
[1]; plasma, read-out: AUC(0–24h)
  AUC(0-t): 9.03 ng·h/mL
[1]; plasma, read-out: AUCTlast
  AUC(0-t): 7.81 ng·h/mL
[1]; plasma, read-out: T1/2 (terminal half-life) (converted)
  half-life: ~0.731 h
[1]; plasma, read-out: Vss
  Vd: 77.6 L/kg
[1]; plasma, read-out: Vz
  Vd: 89.2 L/kg
[1]; plasma
  AUC(0-inf): 10.1 ng·h/mL
  MRT last: 0.52 h
  clearance: 1400 mL/min/kg
  C0: 12.8 ng/mL
[2]; PO 100 mg/kg EK-ECP (Group 3), LLOQ 1 ng/mL, 100 mg/kg
  plasma concentrations: below the lower limit of quantitation; also recorded: below the quantifiable limit
[2]; [3]
  plasma concentrations quantifiable up to: 1 h
[2]; male, Sprague-Dawley, rat, plasma, PO 1000 mg/kg EK-ECP (Group 4), mean (CV), PFF-A N = 1
  Cmax: 1.58 ng/mL
[2]; male, Sprague-Dawley, rat, plasma, PO 1000 mg/kg EK-ECP
  Tmax: 0.5 h
